From ChEMBL document CHEMBL1201862, “PubChem BioAssay data set” (2004)
Active and inactive are the calls of the source.

What was measured:
[1] = target: T1, Sentrin-specific protease 8 (Homo sapiens, UniProt Q96LD8); type: functional;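 also: luminescence read-out of SENP8 inhibition, dose-response confirmation following an ultra-high-throughput screen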
T1 sequence (Q96LD8 whole entry): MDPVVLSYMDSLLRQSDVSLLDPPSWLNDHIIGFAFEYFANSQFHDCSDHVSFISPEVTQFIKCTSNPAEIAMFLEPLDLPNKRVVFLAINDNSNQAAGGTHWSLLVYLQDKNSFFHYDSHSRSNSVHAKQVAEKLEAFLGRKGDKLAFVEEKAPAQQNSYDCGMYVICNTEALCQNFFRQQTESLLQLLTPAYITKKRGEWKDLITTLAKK

[2] = target: T2, Sentrin-specific protease 7 (Homo sapiens, UniProt Q9BQF6); type: functional;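 also: Luminescence-based dose-response confirmation of ultra-high-throughput screening hits, measuring inhibition of SENP7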
T2 sequence (Q9BQF6 whole entry): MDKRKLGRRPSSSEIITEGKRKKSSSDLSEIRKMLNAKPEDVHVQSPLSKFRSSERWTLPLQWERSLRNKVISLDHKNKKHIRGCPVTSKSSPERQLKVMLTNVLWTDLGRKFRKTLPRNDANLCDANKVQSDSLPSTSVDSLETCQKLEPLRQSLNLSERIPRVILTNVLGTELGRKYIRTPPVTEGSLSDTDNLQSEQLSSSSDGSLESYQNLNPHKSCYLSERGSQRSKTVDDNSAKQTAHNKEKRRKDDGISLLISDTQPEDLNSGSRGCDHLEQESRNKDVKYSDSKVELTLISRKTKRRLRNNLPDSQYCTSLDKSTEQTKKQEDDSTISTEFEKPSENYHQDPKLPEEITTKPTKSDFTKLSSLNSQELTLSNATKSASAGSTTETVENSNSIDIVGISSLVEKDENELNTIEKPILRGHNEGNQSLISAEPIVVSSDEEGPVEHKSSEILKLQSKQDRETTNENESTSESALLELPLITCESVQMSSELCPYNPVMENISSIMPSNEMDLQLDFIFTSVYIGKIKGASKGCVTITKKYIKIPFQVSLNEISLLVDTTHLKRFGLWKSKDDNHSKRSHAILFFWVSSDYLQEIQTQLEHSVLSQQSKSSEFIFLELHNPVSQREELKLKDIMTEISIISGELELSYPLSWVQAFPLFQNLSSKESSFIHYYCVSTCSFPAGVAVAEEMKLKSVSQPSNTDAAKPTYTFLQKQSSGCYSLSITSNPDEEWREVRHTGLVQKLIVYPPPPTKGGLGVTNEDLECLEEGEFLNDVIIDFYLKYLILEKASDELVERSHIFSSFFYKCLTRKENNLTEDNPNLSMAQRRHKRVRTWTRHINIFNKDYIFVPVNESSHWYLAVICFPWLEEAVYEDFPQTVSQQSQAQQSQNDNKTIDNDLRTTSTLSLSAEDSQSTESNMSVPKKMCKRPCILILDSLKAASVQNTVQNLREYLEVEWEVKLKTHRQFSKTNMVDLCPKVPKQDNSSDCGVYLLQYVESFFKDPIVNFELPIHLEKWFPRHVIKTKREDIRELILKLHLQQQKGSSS

Caspase-3 = target: T3, Caspase-3 (Homo sapiens, UniProt P42574); type: functional;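 also: Dose-response selectivity test against caspase-3 for candidate inhibitors of sentrin-specific proteases (SENPs)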
T3 sequence (P42574 whole entry): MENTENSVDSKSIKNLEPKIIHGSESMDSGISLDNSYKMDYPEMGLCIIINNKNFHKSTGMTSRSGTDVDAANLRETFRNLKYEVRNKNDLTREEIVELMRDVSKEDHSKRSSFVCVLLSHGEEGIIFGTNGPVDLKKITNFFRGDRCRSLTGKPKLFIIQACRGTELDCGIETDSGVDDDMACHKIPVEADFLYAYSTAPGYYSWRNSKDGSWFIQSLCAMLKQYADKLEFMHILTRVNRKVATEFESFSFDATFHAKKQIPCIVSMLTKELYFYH

[3] = target: T4, Sentrin-specific protease 6 (Homo sapiens, UniProt Q9GZR1); type: functional;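 also: Luminescence-based dose-response confirmatory assay of SENP6 inhibition, following up an ultra-high-throughput screen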
T4 sequence (Q9GZR1 whole entry): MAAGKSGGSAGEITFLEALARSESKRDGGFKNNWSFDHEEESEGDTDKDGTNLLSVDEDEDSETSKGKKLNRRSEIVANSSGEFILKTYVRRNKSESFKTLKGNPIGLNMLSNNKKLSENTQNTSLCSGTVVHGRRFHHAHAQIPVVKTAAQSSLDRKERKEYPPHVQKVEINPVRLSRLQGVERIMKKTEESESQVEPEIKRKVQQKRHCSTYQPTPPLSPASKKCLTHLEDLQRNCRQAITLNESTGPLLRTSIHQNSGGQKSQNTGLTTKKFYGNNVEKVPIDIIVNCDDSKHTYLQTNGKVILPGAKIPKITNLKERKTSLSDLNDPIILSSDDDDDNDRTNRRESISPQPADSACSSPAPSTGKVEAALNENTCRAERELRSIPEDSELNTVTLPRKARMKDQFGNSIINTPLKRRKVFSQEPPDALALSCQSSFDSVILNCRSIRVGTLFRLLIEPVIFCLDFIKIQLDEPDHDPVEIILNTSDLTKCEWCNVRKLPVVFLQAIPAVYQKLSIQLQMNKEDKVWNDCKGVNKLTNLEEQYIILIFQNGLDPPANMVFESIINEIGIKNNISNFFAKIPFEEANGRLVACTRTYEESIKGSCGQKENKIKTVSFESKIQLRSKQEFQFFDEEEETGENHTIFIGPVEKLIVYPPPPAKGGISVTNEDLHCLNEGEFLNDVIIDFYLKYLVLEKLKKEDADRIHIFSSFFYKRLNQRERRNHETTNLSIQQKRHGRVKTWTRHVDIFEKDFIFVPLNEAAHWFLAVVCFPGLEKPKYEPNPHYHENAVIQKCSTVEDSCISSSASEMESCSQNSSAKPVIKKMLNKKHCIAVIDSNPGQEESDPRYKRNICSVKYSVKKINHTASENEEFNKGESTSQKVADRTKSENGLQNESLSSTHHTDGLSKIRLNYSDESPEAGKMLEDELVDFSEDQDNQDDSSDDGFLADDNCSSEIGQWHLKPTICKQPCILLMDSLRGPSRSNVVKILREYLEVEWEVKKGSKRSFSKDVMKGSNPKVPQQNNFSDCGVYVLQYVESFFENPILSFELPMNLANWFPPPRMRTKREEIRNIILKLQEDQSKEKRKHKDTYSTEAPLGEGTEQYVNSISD

HEK293 = assay: EBV LMP1 TES2 canonical NF-kB signalling blockers – cell-based, HEK293, luciferase, cherry-pick, dose response (AID 588343); type: functional; conditions: Homo sapiens
[4] = target: T5, Serine/threonine-protein phosphatase (Candida dubliniensis (strain CD36 / CBS 7987 / NCPF 3949 / NRRLY-17841) (Yeast), UniProt B9W6M3); assay: blockers of CaCl2-induced CDRE-lacZ signaling – S. cerevisiae, luminescence, secondary, dose response (AID 2388); type: functional, cell-based;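 also: yeast reporter cells carrying a calcineurin-responsive lacZ construct stimulated with calcium chloride; luminescent beta-galactosidase reporter signal in whole cells rather than isolated phosphatase activity; potency for inhibition where a drop in reporter signal means calcineurin blockade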
T5 sequence (B9W6M3 whole entry): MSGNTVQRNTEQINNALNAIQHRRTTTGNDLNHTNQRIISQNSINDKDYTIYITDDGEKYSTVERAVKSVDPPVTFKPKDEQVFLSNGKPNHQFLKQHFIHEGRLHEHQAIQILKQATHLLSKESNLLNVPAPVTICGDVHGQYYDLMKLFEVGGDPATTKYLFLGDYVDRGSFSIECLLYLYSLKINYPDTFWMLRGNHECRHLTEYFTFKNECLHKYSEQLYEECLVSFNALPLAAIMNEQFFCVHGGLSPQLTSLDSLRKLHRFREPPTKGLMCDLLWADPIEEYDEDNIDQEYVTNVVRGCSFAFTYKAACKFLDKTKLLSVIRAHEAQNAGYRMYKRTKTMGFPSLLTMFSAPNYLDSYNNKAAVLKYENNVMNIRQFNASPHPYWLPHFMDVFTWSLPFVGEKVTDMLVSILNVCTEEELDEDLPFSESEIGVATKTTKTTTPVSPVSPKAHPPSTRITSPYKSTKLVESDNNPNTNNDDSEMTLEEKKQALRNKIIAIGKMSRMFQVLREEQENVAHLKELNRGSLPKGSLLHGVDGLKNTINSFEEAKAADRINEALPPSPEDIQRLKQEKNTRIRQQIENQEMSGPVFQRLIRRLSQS

Streptococcus = assay: GAS UMAA2166 growth inhibition – luminescence, BacTiterGlo, counter-screen for streptokinase expression inhibitor project, dose response (AID 1915); type: functional, organism-based;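 also: potency for reduction of bacterial viability or growth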
[5] = fluconazole-exposed Candida albicans growth modulators – fluorescence, retest, confirmation (AID 2467); type: functional, cell-based
Nonstructural protein 1 = Nonstructural protein 1 (Influenza A virus, UniProt Q194T2); type: functional, Influenza A virus (A/California/07/2009(H1N1))
Nonstructural protein 1, sequence (Q194T2 whole entry): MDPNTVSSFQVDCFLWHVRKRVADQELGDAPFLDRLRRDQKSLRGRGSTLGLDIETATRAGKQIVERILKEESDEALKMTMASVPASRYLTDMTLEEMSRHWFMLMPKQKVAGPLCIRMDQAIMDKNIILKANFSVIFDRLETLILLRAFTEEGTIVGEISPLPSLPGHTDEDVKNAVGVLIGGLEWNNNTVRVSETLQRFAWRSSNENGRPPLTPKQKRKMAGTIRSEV

[6] = Luminescence Cell-Based Dose Response HTS to Identify Inhibitors of 5'UTR Stem-Loop Driven Prion Protein mRNA Translation in H4 Neuroglioblastoma Cells. [Related pubchem assays: 1827 (Project Summary), 1813 (Primary HTS)]; type: functional
Streptokinase A = target: T6, Streptokinase A (Streptococcus pyogenes serotype M1, UniProt P10520); assay: viability-normalized secreted streptokinase activity reduction – plasminogen activation absorbance, OD405, dose response (AID 1914); type: functional, Streptococcus pyogenes M1 GAS;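 also: secreted streptokinase activity via plasminogen activation per viability signal from cell pellet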
T6 sequence (P10520 whole entry): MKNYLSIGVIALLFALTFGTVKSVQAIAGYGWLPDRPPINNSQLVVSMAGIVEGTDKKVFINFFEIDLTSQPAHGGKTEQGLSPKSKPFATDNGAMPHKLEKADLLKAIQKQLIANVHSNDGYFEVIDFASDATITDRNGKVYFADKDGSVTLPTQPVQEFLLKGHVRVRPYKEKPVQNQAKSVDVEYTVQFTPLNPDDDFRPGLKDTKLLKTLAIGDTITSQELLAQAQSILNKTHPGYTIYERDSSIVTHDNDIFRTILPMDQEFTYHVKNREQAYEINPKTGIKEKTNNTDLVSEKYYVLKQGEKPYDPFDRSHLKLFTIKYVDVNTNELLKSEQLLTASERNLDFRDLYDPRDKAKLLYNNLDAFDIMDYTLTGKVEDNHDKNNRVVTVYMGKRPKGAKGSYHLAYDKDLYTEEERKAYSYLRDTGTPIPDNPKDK

[7] = luciferase reporter signal suppression in cells – H4 neuroglioma cells, luminescence, dose response (AID 1990); type: functional, cell-based
cells = type: functional, cell-based
[8] = target: ATP-dependent molecular chaperone HSP82 (Candida albicans (strain WO-1) (Yeast), UniProt C4YTQ8); assay: steroid-induced GRE reporter decrease in yeast – S. cerevisiae, luminescence, Hsp90 inhibitor project, dose response (AID 2400); type: functional, cell-based;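 also: beta-galactosidase luminescence from glucocorticoid response element reporter as proxy for Hsp90 function; inhibitor potency where signal loss means Hsp90 inhibition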
ATP-dependent molecular chaperone HSP82, sequence (C4YTQ8 whole entry, the tested form may be a part): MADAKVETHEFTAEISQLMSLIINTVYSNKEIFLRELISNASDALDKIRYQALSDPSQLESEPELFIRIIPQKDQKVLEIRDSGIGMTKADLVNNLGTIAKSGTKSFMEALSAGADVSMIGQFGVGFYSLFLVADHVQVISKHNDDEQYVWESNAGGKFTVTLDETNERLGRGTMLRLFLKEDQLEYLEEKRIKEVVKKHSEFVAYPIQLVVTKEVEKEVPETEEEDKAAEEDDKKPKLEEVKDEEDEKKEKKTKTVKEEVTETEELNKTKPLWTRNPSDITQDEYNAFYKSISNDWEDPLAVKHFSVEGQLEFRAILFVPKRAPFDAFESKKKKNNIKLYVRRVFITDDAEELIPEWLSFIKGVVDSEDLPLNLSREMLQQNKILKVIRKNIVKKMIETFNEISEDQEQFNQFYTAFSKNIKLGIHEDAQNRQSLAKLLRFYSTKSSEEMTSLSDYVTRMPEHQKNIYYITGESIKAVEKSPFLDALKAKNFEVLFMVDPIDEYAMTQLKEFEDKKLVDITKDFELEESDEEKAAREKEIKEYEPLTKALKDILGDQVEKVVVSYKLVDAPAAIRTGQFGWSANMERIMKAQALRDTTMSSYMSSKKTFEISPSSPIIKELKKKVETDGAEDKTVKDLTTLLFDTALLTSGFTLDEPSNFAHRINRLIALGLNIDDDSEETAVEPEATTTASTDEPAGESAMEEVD

[9] = luciferase reporter signal reduction – luminescence, H4-C neuroglioblastoma cells, dose response (AID 2458); type: functional, cell-based;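 also: H4 neuroglioblastoma cells stably carrying a luciferase reporter gene fusion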
BJ = assay: growth inhibition of engineered Ras-driven BJ cells – cell-based, alamar blue fluorescence, cherrypicked samples, dose response (AID 2631); type: functional; conditions: Homo sapiens;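 also: confirmatory dose-response assay in RAS-dependent BJ fibroblasts engineered with TERT, LT and ST, with cytotoxicity read by fluorescence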
[10] = NIH-3T3 fibroblast cytotoxicity, dose response, cytotoxicity control, cell-based, fluorescence, Alamar Blue, secondary assay (AID 2327); type: functional;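 also: NIH-3T3 mouse fibroblasts cultured with fluconazole at 8 µg/mL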
[11] = system: Streptococcus sp. 'group A'; assay: Streptococcus pyogenes SK(-)GAS viability under kanamycin – luminescence, BacTiterGlo, confirmation, counter-screen for streptokinase expression inhibitor project, dose response (AID 1900); type: functional, organism-based
[12] = target: Heat shock protein HSP 90-alpha (Homo sapiens, UniProt P07900); type: functional, organism-based
[13] = alpha-synuclein stem-loop translation blockers – luminescence, H4 neuroglioblastoma cells, dose confirmation, confirmation (AID 2454); type: functional, cell-based;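 also: H4 neuroglioblastoma cells carrying an alpha-synuclein 5'UTR luciferase reporter; potency for inhibition of the luciferase signal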
[14] = alpha-synuclein stem-loop luciferase translation blockers – H4 neuroglioma cells, luminescence, confirmation (AID 1988); type: functional, cell-based

For `COn1c(-c2ccccc2)nc2ccc(Cl)cc21`, the IC50 [1] was 34.9 µM (active), the IC50 [2] was 13.1 µM (active) and the IC50 (Caspase-3) was 20.1 µM (active). The IC50 [3] was 30 µM (active).

In the case of `CC1CCCN(C(=O)c2ccc(-c3ccccc3Cl)o2)C1` (stereo unspecified), the IC50 [1] is reported as 31.4 µM (active), the IC50 [2] is reported as 15.2 µM (active) and the IC50 (Caspase-3) is reported as 34.7 µM (active). The IC50 [3] was 27.6 µM (active).

For `COc1ccc(-c2csc3ncnc(NCCO)c23)cc1`, the AC50 (HEK293) was 13.9 µM (active).

With `CC(C)CC(=NNC(=O)c1ccncc1)c1cc(Cl)ccc1O` the AC50 (HEK293) was 4.28 µM (active).

With `CCOC(=O)/C(=N\Nc1ncnc2ccccc12)c1ccc(OC)cc1` the IC50 [1] was 14.2 µM (active), the IC50 [2] was 3.39 µM (active) and the IC50 (Caspase-3) was 16.9 µM (active). The IC50 [3] was 5.23 µM (active).

In the case of `O=C(N/N=C/c1cc2c3c(c1O)CCCN3CCC2)c1ccccc1O`, the EC50 [4] is reported as 18.2 µM (active), the EC50 (Streptococcus) is reported as 12 µM (active) and the EC50 [5] is reported as 0.429 µM (active). For the same compound, the AC50 (HEK293) was 5.6 µM (active), the IC50 (Nonstructural protein 1) was 3.22 µM (active) and the EC50 [6] was 0.102 µM (active). The EC50 (Streptokinase A) was > 150 µM (not active), the EC50 [7] was 2.89 µM (active) and the EC50 (cells) was 0.687 µM (active). The EC50 [8] was 18.1 µM (active), the EC50 [9] was 0.558 µM (active) and the EC50 (BJ) was 22.4 µM (active). The EC50 [10] was 23.7 µM (active), the EC50 [11] was 8.16 µM (active) and the AC50 [12] was 2.14 µM (active). The EC50 [13] was 0.798 µM (active) and the EC50 [14] was < 0.1 µM (active).
